Reference: patent publication US8323708B2, “Poultry meat and eggs comprising beneficial fatty acids” (Monsanto Technology LLC, priority 2009, dated 2012)

What was measured:
[1] = Laying hen study: long chain fatty acid composition of eggs; assay type: in vivo, laying hens; settings: total egg
Experimental: A study was conducted to determine whether laying hens fed a diet enriched in stearidonic acid could produce eggs with elevated levels of beneficial omega-3 fatty acids including EPA and DHA. Mature laying hens […] were randomly allotted to seven dietary treatments (16 hens/treatment) and were fed diets containing the following levels of n-3 fatty acids as described in Table 28 for four weeks. Sixteen birds were given each treatment. Four birds were randomly selected out of the 16 per treatment to obtain eggs during week 4 for fatty acid composition. […] The laying hens had ad libitum access to feed and water. The composition of the diets (Table 29) and premixes (Table 30) are provided below. To help prevent oxidation of the fatty acids, 0.05% ethoxyquin (Rendox) was added to each premix. Premixes were manufactured within 3 days of arrival of ethyl esters. To limit the oxidation associated with storage, diets were manufactured once and stored in a refrigerated cooler at 4° C. during the duration of the study. Eggs collected during […] (days 22-28) were maintained under refrigerated conditions until all eggs for that week were collected. Eggs were sorted by hen and treatment. Two eggs per hen from 4 hens per treatment were taken. The two eggs were weighed individually, cracked and the shell weighed. The difference between fresh egg and shell represented liquid egg weight and served as the basis for further calculations. The liquid fraction from each of the two eggs per hen were combined in a sample cup and homogenized. Samples were analyzed for fatty acids by gas chromatography.

[2] = 21 day broiler study: long chain fatty acid composition of skinless breast meat; assay type: in vivo, broiler chickens; settings: day 21-42
Experimental: (§1) A 21 day study was conducted to determine whether broiler chickens fed a diet containing SDA could produce meat with elevated levels of omega-3 fatty acids including EPA and DHA.
(§2) Fifty pens of four birds per pen were used. There were 25 pens of males and 25 pens of females. Five pens of males and five pens of females were each fed one of five treatment diets from day 21 to 42 days of age. Prior to day 21 all birds were fed a standard 22% protein starter diet formulated to meet NRC (1994) nutrient requirements (shown in Table 16 as “S” diet). The feed prepared was feed as a crumble.
(§3) The test diets were prepared and fed in mash form. All broilers had ad libitum access to feed and water for the duration of the 21 day study. The composition of the diets (Table 4) and premixes (Table 5) are provided below.
(§4) To help prevent oxidation of the fatty acids, 0.05% ethoxyquin (Rendox) was added to each premix. Premixes were manufactured within 3 days of arrival of ethyl esters. To limit oxidation associated with storage, diets were manufactured once and stored in a refrigerated cooler at 4° C. during the duration of the study.
(§5) For male pens only, four out of the five pens were randomly selected. Two birds from each of these pens were randomly selected (eights birds per treatment). The right and left thigh and right and left breast from these 40 birds were bagged and labeled and frozen. The right breast and thigh samples were analyzed for shelf life stability and the left skinless breast and left boneless, skinless thigh from these same birds were analyzed for fatty acid composition.

[3] = 21 day broiler study: long chain fatty acid composition of thigh meat; assay type: in vivo, broiler chickens; settings: boneless skinless thigh meat, day 21-42
Experimental: as §1, §2, §3, §4, §5

CC/C=C\C/C=C\C/C=C\CCCCCCCC(=O)OCC [ALA Ethyl Ester]
ALA (C18:3n-3) ([1]; 0.932% of diet): 267.5 mg/100 g | DHA (C22:6n-3) ([1]; 0.932% of diet): 132.5 mg/100 g | DPA (C22:5 n-3) ([1]; 0.932% of diet): 22.5 mg/100 g | EPA (C20:5n-3) ([1]; 0.932% of diet): 7.5 mg/100 g | Omega 6/Omega 3 ratio ([1]; 0.932% of diet): 2.9 | Total omega 3's ([1]; 0.932% of diet): 430 mg/100 g | ALA (C18:3n-3) ([1]; 1.864% of diet): 622.5 mg/100 g | DHA (C22:6n-3) ([1]; 1.864% of diet): 155 mg/100 g | DPA (C22:5 n-3) ([1]; 1.864% of diet): 32.5 mg/100 g | EPA (C20:5n-3) ([1]; 1.864% of diet): 12.5 mg/100 g | Omega 6/Omega 3 ratio ([1]; 1.864% of diet): 1.5 | SDA (C18:4n-3) ([1]; 1.864% of diet): 2.5 mg/100 g | Total omega 3's ([1]; 1.864% of diet): 825 mg/100 g

CC/C=C\C/C=C\C/C=C\C/C=C\CCCCC(=O)OCC [SDA Ethyl Ester]
ALA (C18:3n-3) ([2]; ethyl ester 0.416% of diet): 10 mg/100 g | DHA (C22:6n-3) ([2]; ethyl ester 0.416% of diet): 10 mg/100 g | DPA (C22:5 n-3) ([2]; ethyl ester 0.416% of diet): 22.5 mg/100 g | EPA (C20:5n-3) ([2]; ethyl ester 0.416% of diet): 20 mg/100 g | Omega 6/Omega 3 ratio ([2]; ethyl ester 0.416% of diet): 2.9 | SDA (C18:4n-3) ([2]; ethyl ester 0.416% of diet): 22.5 mg/100 g | Total omega 3's ([2]; ethyl ester 0.416% of diet): 85 mg/100 g | ALA (C18:3n-3) ([2]; ethyl ester 0.832% of diet): 10 mg/100 g | DHA (C22:6n-3) ([2]; ethyl ester 0.832% of diet): 10 mg/100 g | DPA (C22:5 n-3) ([2]; ethyl ester 0.832% of diet): 30 mg/100 g | EPA (C20:5n-3) ([2]; ethyl ester 0.832% of diet): 27.5 mg/100 g | Omega 6/Omega 3 ratio ([2]; ethyl ester 0.832% of diet): 2.0 | SDA (C18:4n-3) ([2]; ethyl ester 0.832% of diet): 40 mg/100 g | Total omega 3's ([2]; ethyl ester 0.832% of diet): 117.5 mg/100 g | ALA (C18:3n-3) ([3]; ethyl ester 0.416% of diet): 82.5 mg/100 g | DHA (C22:6n-3) ([3]; ethyl ester 0.416% of diet): 20 mg/100 g | DPA (C22:5 n-3) ([3]; ethyl ester 0.416% of diet): 37.5 mg/100 g | EPA (C20:5n-3) ([3]; ethyl ester 0.416% of diet): 30 mg/100 g | Omega 6/Omega 3 ratio ([3]; ethyl ester 0.416% of diet): 4.4 | SDA (C18:4n-3) ([3]; ethyl ester 0.416% of diet): 187.5 mg/100 g | Total omega 3's ([3]; ethyl ester 0.416% of diet): 362.5 mg/100 g | ALA (C18:3n-3) ([3]; ethyl ester 0.832% of diet): 86.7 mg/100 g | DHA (C22:6n-3) ([3]; ethyl ester 0.832% of diet): 20 mg/100 g | DPA (C22:5 n-3) ([3]; ethyl ester 0.832% of diet): 50 mg/100 g | EPA (C20:5n-3) ([3]; ethyl ester 0.832% of diet): 50 mg/100 g | Omega 6/Omega 3 ratio ([3]; ethyl ester 0.832% of diet): 2.7 | SDA (C18:4n-3) ([3]; ethyl ester 0.832% of diet): 386.7 mg/100 g | Total omega 3's ([3]; ethyl ester 0.832% of diet): 593.3 mg/100 g | ALA (C18:3n-3) ([1]; 0.416% of diet): 42.5 mg/100 g | DHA (C22:6n-3) ([1]; 0.416% of diet): 150 mg/100 g | DPA (C22:5 n-3) ([1]; 0.416% of diet): 35 mg/100 g | EPA (C20:5n-3) ([1]; 0.416% of diet): 10 mg/100 g | Omega 6/Omega 3 ratio ([1]; 0.416% of diet): 5.0 | SDA (C18:4n-3) ([1]; 0.416% of diet): 10 mg/100 g | Total omega 3's ([1]; 0.416% of diet): 247.5 mg/100 g | ALA (C18:3n-3) ([1]; 0.832% of diet): 55 mg/100 g | DHA (C22:6n-3) ([1]; 0.832% of diet): 182.5 mg/100 g | DPA (C22:5 n-3) ([1]; 0.832% of diet): 60 mg/100 g | EPA (C20:5n-3) ([1]; 0.832% of diet): 22.5 mg/100 g | Omega 6/Omega 3 ratio ([1]; 0.832% of diet): 3.7 | SDA (C18:4n-3) ([1]; 0.832% of diet): 25 mg/100 g | Total omega 3's ([1]; 0.832% of diet): 360 mg/100 g
